These results are taken from patent US20060111778A1, “Methods of promoting healing of cartilage defects and method of causing stem cells to differentiate by the articular chondrocyte pathway” (priority 2004, published 2006).

For the test, the system named is bone marrow-derived stem cells (MSCs). As to the kind of experiment: culture of bone marrow-derived stem cells (MSCs) with cartilage fragments, with or without TGF-β1. The class given is cell-based, horse. On the procedure: Bone marrow aspirates were obtained from the tuber coxae of 3 normal horses (3-years-old) to attain bone marrow-derived stem cells (MSCs). Aspirates were cultured in media, pre-plated for purification, and grown in monolayer culture flasks for 2-3 weeks until a confluent monolayer culture of MSCs was obtained. Confluent monolayers were expanded for another 2-3 weeks until a minimum of 26×10^6 cells were attained.
Cartilage was collected sterilely from the same horses and freeze-thawed 3 times to ensure all native cells within the cartilage were dead. Prior to the start of the experiment the cartilage was placed in liquid nitrogen and pulverized until it became a fine powder. Then the cartilage was weighed into aliquots to make 2.5% and 10% of cartilage weight to volume in media.
A 24-well, non-adherent plate contained treatment groups of 1×10^6 cells only, 1×10^6 cells with 2.5% cartilage, 1×10^6 cells with 10% cartilage, 2.5% cartilage only, and 10% cartilage only to make 5 treatment groups. The cells-only treatment group was the baseline positive control. The 2.5% and 10% cartilage fragments without cells served as the negative controls and, if necessary, for baseline values of proteoglycan and DNA content of the matrix provided. […]

For the substance “TGF-β1: transforming growth factor β type 1, growth factor supplemented to media at 5 ng/ml”, the “MSC survival and chondrogenesis” value is listed as “necessary”. Besides, for the setting “day 14, 5 ng/ml TGF-β1”, the “DNA content by day 14” value is listed as “significantly increasing”.
